Data set [1] relates to γ-glutamyl transferase (GGT). It counts as in vitro ADME, equine. The note with it: horse, 100 μgmL^−1, pH 9. The protocol:
Each compound and GSH (100 μgmL^−1, 0.0315 molL^−1) was added to each reaction vessel containing phosphate buffer solution (800 μL, pH 9.0). The reaction vessels were incubated at 37 °C with shaking for the entire duration of the experiment. Reaction was initiated by the addition of GGT enzyme solution (100 μL, 10 UmL^−1). […] The degradation rate of the novel compounds analysed by HPLC were compared with that of GSH. […] A GGT degradation less than 50% was considered resistance to GTT activity.

Data set [2] in a line: Pharmacokinetic study after IV injection or oral gavage. The settings on record: for AUC / bioavailability / half-life: male, plasma; for AUC / bioavailability: Sprague-Dawley; for AUC / half-life: 75 mg per rat; for AUC: AUC0-48, mean ± SD, n = 4; for bioavailability: rat, po, 75 mg; for half-life: read-out: plasma t½. It counts as in vivo, male Sprague Dawley rat. The procedure: Pharmacokinetic studies were conducted using a male Sprague Dawley rat model. […] The animal experiments were performed in China, complying with the guide for care and use of laboratory animals. […] The collected blood samples were centrifuged at 7104× g for 5 min, and the plasma was stored at -70 °C until analysis. The plasma protein was precipitated by the addition of 1 mL of ACN, which was then vortexed for 1 min and centrifuged at 30,065× g for 15 min. […] The 1.70 concentration for each group (oral/IV) was determined using a modified LC-MS method adapted from the GSH protocol. Briefly, blood samples containing 1.70 were analysed separately by positive mode LC-MS using an Agilent 1100 series HPLC (Agilent Technology, Inc., Santa Clara, CA, USA) coupled with an Agilent 6530 Accurate Mass Q-TOF LC/MS (Agilent Technology, Inc., Santa Clara, CA, USA), which was equipped with a dual jet stream electrospray ionisation source. Chromatographic separation was achieved on a Zorbax SB C18 column (5 μm, 3 × 150 mm) maintained at 40 °C. […] The flow rate was set at 0.5 mL/min with an injection volume of 8 μL. Mass spectrometer settings were configured for m/z transitions of 319.1→215.2, with a fragmentor voltage of 180 V. The instrument parameters were as follows: a gas flow of 10 L/min, a gas temperature of 275 °C, a sheath gas flow of 12 L/min, a sheath gas temperature of 300 °C, a nebuliser pressure of 40 psi, a capillary voltage of 3000 V, and a nozzle voltage of 500 V. This method was developed and validated through triplicate linearity studies at concentrations ranging from 30 to 5000 ng/mL according to the International Conference on Harmonization (ICH) guidelines. Data were acquired and analysed using Agilent Mass Hunter Software (version A.02.17).

Data set [3] in a line: UV rescue of UVA-irradiated fibroblast cells (MTT). Type of data set: cell-based. The note with it: peptide 0.0325 mmolL^−1, 24 h, no UV, mean ± SD, n = 6, read-out: % Cell Viability (no UV). The procedure:
Fibroblast cells were seeded into 96-well plates at a density of 10,000 cells per well determined by cell counting. Cells were allowed to settle and attach for 24 h before the addition of peptides. The supernatant in each well was discarded, and the attached cells were washed using serum-free DMEM twice. One group of cells was exposed to UVA under a UV lamp for 1 h. A second group of cells was not exposed to UV irradiation. The supernatant was removed from each well of both groups and replaced with peptide (100 μL, 0.0325 mmolL^−1), which was then dissolved in Fluorobite^TM DMEM. Each plate, including 2 wells of both groups was also incubated with serum-free DMEM (positive control) and 2% Triton-X (negative control) for 24 h. The supernatant in each well of both groups was then discarded and the cells washed using PBS. MTT (100 μL, 6 mmolL^−1) that was dissolved in HBSS was then added to each well and incubated for 2 h for MTT conversion into formazan. The supernatant was then discarded, and the cells were washed using PBS to remove any residual MTT and formazan that were not attached to the cellular mitochondria. Formazan was dissolved in DMSO (50 μL), and the absorbance was measured on a microplate reader at a wavelength of 570 nm.

The subject of data set [4] is glutathione reductase (GR) and glutathione peroxidase (GPx). Kind of data set: Glutathione reductase and glutathione peroxidase coupled assay (NADPH, 340 nm). It counts as biochemical, yeast (GR), bovine (GPx). The settings on record: for GT/GPx Activity > 50%: yes/no, more than 50% considered retaining GR and GPx activity. The procedure:
The activity of GR can be measured by monitoring the rate of decrease in absorbance of its substrate, NADPH, which absorbs light of 340 nm in the presence of a second substrate, i.e., oxidised GSH. […] In the presence of peroxides, reduced GSH can be oxidised by the enzyme GPx while reducing the peroxide. […] The NADPH solution (10 μL, 5 mmolL^−1), GPx enzyme solution (10 μL, 0.25 UmL^−1), and GR enzyme solution (10 μL, 10 UmL^−1) were also added to the reaction mixture. The reaction was initiated by the addition of tBu-OOH (2 μL, 30 mmolL^−1), and the decrease in absorbance at 340 nm was recorded by a microplate reader every 10 secs for one minute. […] A GR and GPx activity more than 50% was considered as retaining GR and GPx activity.

For data set [5] the following is noted: cited from earlier work.
Data set [6] relates to γ-glutamyl transferase (GGT). The data set can be described thus: in vitro. The note with it: horse, γ-glutamyl transferase (GGT) solution. The procedure:
(§1) To investigate the GSH degradation against common enzymes of the GI tract, the degradation of GSH in the presence of pepsin, chymotrypsin, trypsin, aminopeptidase, GGT, jejunum luminal content, and mucosal homogenates obtained from the rats’ intestines were investigated. GSH (100 μgmL^−1) was incubated at 37 °C with the above enzymes or mixtures for 24 h. The sample was withdrawn at the time intervals of 0, 1, 10, 30, 60, 120, 240, 480, and 1440 min, which were then mixed with equal volume of ice-cold HCl (0.2 molL^−1) until analysis by HPLC. Enzymatic degradation was repeated until three results within <5% SD were obtained.

Another data set addresses trypsin (Bos taurus, UniProt P00760). The data set can be described thus: in vitro. The note with it: bovine, trypsin solution. The procedure:
as §1

In the next data set the test system is aminopeptidase. The data set can be described thus: in vitro. The settings on record: aminopeptidase solution. The procedure:
as §1

Another data set in a line: in vitro. The note with it: rat. The procedure:
as §1

The target in a further data set is chymotrypsin (Bos taurus, UniProt P00766). The data set can be described thus: in vitro. The settings on record: bovine, chymotrypsin solution. The procedure: as §1
The next data set concerns the target pepsin (Bos taurus, UniProt P00792). The data set can be described thus: in vitro. The note with it: bovine, pepsin solution. The protocol: as §1
The conditions of data set [7]: background statement in abstract, ref not given; cited from earlier work.

Structures are written as SMILES. In brackets after ≈: the same amount, converted by molar mass.

Sequence of trypsin (P00760 24-246): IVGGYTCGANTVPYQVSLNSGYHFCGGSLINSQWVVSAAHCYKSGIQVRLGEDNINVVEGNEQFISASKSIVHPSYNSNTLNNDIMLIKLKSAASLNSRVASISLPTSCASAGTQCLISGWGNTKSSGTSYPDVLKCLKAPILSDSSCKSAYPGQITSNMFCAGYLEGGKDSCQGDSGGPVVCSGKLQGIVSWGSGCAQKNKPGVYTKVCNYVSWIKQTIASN
Sequence of pepsin (P00792 43-372): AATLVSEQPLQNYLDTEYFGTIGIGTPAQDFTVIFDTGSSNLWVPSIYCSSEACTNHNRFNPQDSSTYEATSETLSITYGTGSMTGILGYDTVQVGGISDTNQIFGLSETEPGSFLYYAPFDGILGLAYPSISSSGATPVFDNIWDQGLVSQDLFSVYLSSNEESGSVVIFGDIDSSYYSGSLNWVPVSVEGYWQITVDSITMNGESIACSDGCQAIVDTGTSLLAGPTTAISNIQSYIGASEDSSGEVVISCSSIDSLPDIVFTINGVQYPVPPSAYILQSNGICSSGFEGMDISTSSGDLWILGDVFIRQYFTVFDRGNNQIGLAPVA

In the case of `CN(C(=O)CC[C@H](N)C(=O)O)[C@@H](CS)C(=O)NCC(=O)O` [Compound 1.70], the “% Degradation by GGT” value in data set [1] is recorded as 11.7%. In [2] (Sprague Dawley rats), the “fold increase in oral bioavailability compared to native GSH” value turned out to be 16.1 fold, the “fold increase in plasma t½ compared to native GSH” value was 16.8 fold and the half-life turned out to be 0.56 h. This compound returned an AUC in data set [2] (IV) of 727 ± 42 ng·h/mL. Also, the AUC in [2] (oral) was determined as 82 ± 8 ng·h/mL. The compound further gave a bioavailability in data set [2] of 11.3 ± 1.2%. Further, the viability at 24 h, 0.0325 mmolL^−1 in [3] worked out at 108 ± 9.4%. Moreover, the “activity with GPx and GR enzymes (in words)” value in data set [4] (qualitative analysis) is “retention of activity”. In addition, the “GT/GPx Activity > 50%” value in data set [4] was “✔ (✔: yes)”.
With `N[C@@H](CCC(=O)N[C@@H](CS)C(=O)NCC(=O)O)C(=O)O` [GSH, Glutathione], the values for the AUC in [2] (IV) and in [2] (oral) were 5350 ± 2480 ng·h/mL and 36 ± 8 ng·h/mL, respectively. The compound further had a bioavailability in data set [2] of 0.7 ± 0.1%. In addition, the half-life in data set [2] (Sprague Dawley rats) stood at 0.0333 h. The water solubility in data set [5] is reported as 292.5 mg/mL (≈ 952 mM). The half-life at 100 μgmL^−1 in data set [6] is 0.7 ± 0.03 h; on trypsin, 5.8 ± 0.3 h; in the data set with aminopeptidase, 18.9 ± 0.9 h; in the data set “in vitro” (jejunum luminal contents), 30.5 ± 1.5 h; in “in vitro” (jejunum mucosal homogenates) it was 9.4 ± 2 h; on chymotrypsin, 4.6 ± 0.2 h. On pepsin, this compound showed a half-life at 100 μgmL^−1 of 31.4 ± 1.6 h. The oral bioavailability result in data set [7] was “below 1%”. Also, the “GT/GPx Activity > 50%” value in [4] was “✔ (✔: yes)”.
